Data as given in PubChem BioAssay (NCI).
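Test compounds were applied to cells in 96-well plates for 48 hours at 5 doses. TGI: concentration producing complete growth inhibition.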

What was measured:
Assay in all cases: NCI anticancer screen, dose series, 48 h
[1] = test system: A498 renal
[2] = test system: EKVX NSCLC
[3] = test system: HCT-116 colon
[4] = test system: HOP-92 NSCLC
[5] = test system: KM12 colon
[6] = test system: MCF7 breast
[7] = test system: MDA-MB-231 breast
[8] = test system: MDA-MB-435
[9] = test system: MDA-N
[10] = test system: NCI-H226 lung
[11] = test system: NCI-H23 lung
[12] = test system: NCI/ADR-RES ovarian
[13] = test system: OVCAR-4 ovarian
[14] = test system: OVCAR-8 ovarian
[15] = test system: SF-539 CNS
[16] = test system: SK-MEL-5 melanoma
[17] = test system: SNB-19 CNS
[18] = test system: U251 CNS
[19] = test system: UACC-62 melanoma

| SMILES | TGI [1] [µM] | TGI [2] [µM] | TGI [3] [µM] | TGI [4] [µM] | TGI [5] [µM] | TGI [6] [µM] | TGI [7] [µM] | TGI [8] [µM] | TGI [9] [µM] | TGI [10] [µM] | TGI [11] [µM] | TGI [12] [µM] | TGI [13] [µM] | TGI [14] [µM] | TGI [15] [µM] | TGI [16] [µM] | TGI [17] [µM] | TGI [18] [µM] | TGI [19] [µM] |
| --- | --- | --- | --- | --- | --- | --- | --- | --- | --- | --- | --- | --- | --- | --- | --- | --- | --- | --- | --- |
| COc1ccc2c(c1)CCC(CN1CCN(CCOC(c3ccc(F)cc3)c3ccc(F)cc3)CC1)C2O (centres undefined) | 19.9 | 25.5 | 23.8 | 26.7 | 63.2 | 39.7 | 27.4 | 34.6 | 29.7 | 39.8 | 28.1 | 25.4 | 32.9 | 27.4 | 51.6 | 20.1 | 31.5 | 26.1 | 24.2 |
| COc1cc(CNc2nc3ccccc3n2Cc2ccccc2)cc(CN2CCOCC2)c1O | 39.2 | > 100 | 41.7 | 56.3 | > 100 | 79.5 | 38.1 | 44.7 | 68.2 | 82.8 | > 100 | 65.6 | > 100 | > 100 | 34.5 | 34.2 | > 100 | 93.1 | 45.2 |
| CN(CCCCN1CCCC1)CCCCN(C)C(=O)Cc1ccc(Cl)c(Cl)c1 | 32.4 | 37 | 29.3 | 17.5 | 26.1 | 28.3 | 23.5 | 5.3 | 12.2 | 41.8 | 37.3 | > 100 | 33.9 | 64.9 | 23.3 | 19.9 | 36.8 | 27.8 | 12.3 |
| CCOC(=O)NC(Nc1ccc(F)c(F)c1)(C(=O)OCC)C(F)(F)F (centres undefined) | > 100 | > 100 | > 100 | > 100 | > 100 | > 100 | > 100 | > 100 | > 100 | > 100 | > 100 | > 100 | > 100 | > 100 | > 100 | > 100 | > 100 | > 100 | > 100 |
| N#Cc1nc(Sc2cnsn2)c(Sc2cnsn2)nc1C#N | 43.8 | 36.7 | 17.1 | > 70.5 | 40.4 | > 59.1 | 48.7 | 33.8 | 49.6 | 43.7 | 46.2 | 54.3 | 61.1 | > 75.5 | 41.4 | 29.4 | > 78.1 | > 90.1 | 32.5 |
| CCNc1nc(N)c(C(=O)c2cccs2)s1 | 82.6 | 62.8 | > 100 | > 100 | 46.7 | > 100 | > 100 | 82.6 | > 100 | 76 | 63.9 | > 100 | 77.6 | > 100 | 46.4 | 44.8 | > 100 | > 100 | 51.8 |
| CCOC(=O)c1ccc(NC(=O)O/N=C(/Cl)C(C)C)cc1 | 28.4 | 31.3 | 22.4 | 3.7 | 35.9 | 21.3 | 39.7 | 32.5 | 32.4 | 50.2 | 47.7 | 37.5 | 28.4 | 27.9 | 34.6 | 30 | > 59.1 | 36.3 | 38.2 |
| Cc1nc2c(=O)n(C)c(=O)nc-2n(CCO)c1C | > 100 | > 100 | > 100 | > 100 | > 100 | > 100 | > 100 | > 100 | > 100 | > 100 | > 100 | > 100 | > 100 | > 100 | > 100 | > 100 | > 100 | > 100 | > 100 |
| COC(=O)C1=C([C@H]2COC(C)(C)O2)[C@H]2C[C@@H]1[C@@H]1OC(C)(C)O[C@@H]12 | > 100 | > 100 | > 100 | > 100 | > 100 | > 100 | > 100 | > 100 | > 100 | > 100 | > 100 | > 100 | > 100 | > 100 | > 100 | > 100 | > 100 | > 100 | > 100 |
| CCOC(=O)/C(=C\c1ccnc2ccccc12)P(=O)(OCC)OCC | 5.98 | 15.1 | 3.61 | 6.93 | 13.9 | 14.7 | 8.84 | 9.95 | 6.74 | 31.3 | 4.22 | 5.9 | 6.61 | 7.96 | 3.32 | 10.7 | 15.3 | 9.51 | 10.4 |
| CC(C)Oc1c(C2(c3ccccc3O)SCCCS2)c(=O)c1=O | > 100 | > 100 | > 100 | > 100 | > 100 | > 100 | > 100 | > 100 | > 100 | > 100 | > 100 | > 100 | > 100 | > 100 | > 100 | > 100 | > 100 | > 100 | > 100 |
